Test [1] has as its system antibodies to HIV-1. The test can be described thus: EIA of peptide-carrier conjugates with individual human sera. The format is binding. Conditions: BSA-SMCC conjugate; for immunoreactivity with positive sera: 98 sera containing antibodies to HIV-1, Figures 10B, 10C. Here is the method:
(§1) The free peptides or peptide-protein conjugates of Figures 1-13 were initially screened for immunoreactivity by coating each well of polystyrene microtiter EIA plates (Costar, Cambridge, Massachusetts, U.S.A.) with 0.2 ml amounts of concentrations of 5-50 micrograms/ml peptide in Tris buffer, 10 mM, pH 8.0, at 4°C overnight. Peptides or peptide-protein conjugates showing immunoreactivity by EIA were then further diluted for coating to determine the minimal concentrations required that allowed maximal immunoreactivity with antibodies to HIV, and minimal nonspecific reactivity with normal sera. The EIA tests were performed as follows: The coating solution was removed from each well and the wells were blocked at 37°C for 30 minutes with a solution of 50 mM phosphate, 100 mM NaCl, pH 7.4, 1% BSA, 0.5% gelatin. The wells were then aspirated dry with a microtiter plate washer and washed 3 times with a solution of 50 mM phosphate, 100 mM NaCl, .05% Tween 20, (trademark) pH 7.4 (PBST). A 1:101 dilution (in PBST with 1% BSA, 1% NRS) of the primate serum to be tested was then added as 0.2 ml to each washed well and the plates were incubated at 37°C for 30 minutes. The plates were then washed x 3 with PBST, and 0.2 ml amounts of a 1:2000 dilution of goat anti-human (GAH) peroxidase enzyme conjugate (Organon Teknika, Cappel, Melvern, Pennsylvania, U.S.A.) that recognized human IgG, IgA, and IgM were added to each well, and the plates were incubated for 30 minutes at 37°C. The plates were then washed x 3 with PBST and incubated with 0.2 ml/well substrate consisting of 0,1M citric acid pH 5.2, 0.1 mg/ml o-phenylene diamine, 0.01% H₂O₂, at room temperature in the dark for 10 minutes. Reactions were stopped with 50 microliters of 4N H₂SO₄, and the color development was quantitated in a Multiscan plate reader at A₄₉₂. In each series of experiments positive and negative controls were included, and all tests were done in duplicate or quadruplicate. Most peptides and peptide conjugates were initially screened against a 1:101 dilution of pools of HIV positive or HIV negative sera, and the same serum pool was used to allow quantitative comparison of immunoreactivity of different free peptides or peptide-protein conjugates.
Figure 10A illustrates the immunoreactivity of synthetic natural peptides 2S06 and 2S09 (Figure 1) when conjugated via their C-terminal GC spacer to KLH using the heterobifunctional linker MBS. […] However, the immunoreactivity of many of the positives was low (A₄₉₂ less than 1.0), and some of the negative samples had A₄₉₂ values slightly above 0.20, resulting in minimal discrimination between negatives and positives. This poor discrimination led to a search for an improved carrier protein and/or linker.
Figure 10B illustrates the reactivity of synthetic natural peptide IWGCSGKLICTTAVPGC (2S09) when conjugated through its C-terminus to BSA via the heterobifunctional linker SMCC. […] Improvement in assay performance as compared with results of Example 5A is noted with respect to negative samples having lower A₄₉₂ values, and most positive samples having higher A₄₉₂ values. […] Because of the possibility that some of the low responsiveness might be due to antigenic differences of genetic variants in the region of this epitope, as reported for HIV isolates from Zaire (Gnann et al., Science 237:1346-1349, 1987), the natural sequence variant peptide 5S67 (Figure 3) was synthesized, chemically linked to BSA with SMCC, and tested against the same sera, plus one additional negative serum sample (Figure 10C). […] This instigated a search for unnatural sequence variants of peptide 2S09 that would retain high immunoreactivity with most sera that contained antibodies to HIV-1, and yet retain low reactivity with sera devoid of antibodies to HIV. […]

In test [2] the test system is antibodies to HIV-1. The test can be described thus: Rapid EIA with latex-immobilized peptide reagents, HIV-1. The conditions noted are these: passive adsorption. The format is binding, human. Here is the method:
(§2) A test device for performing rapid tests in less than 15 minutes was prepared as illustrated in Figures 14 and 15. Referring to Figures 14 and 15, the device comprises a plastic slide 10 (approximately 1 inch wide by 3/16 inch thick by 3 1/4 inches long) having a plurality of funnel-like wells 12, each having a capacity of approximately 200 microliters, an upper inflow tract rim 14 diameter of approximately 9 mm and a lower outflow tract 16 diameter of approximately 2 mm. The undersurface of the outflow tract 16 is designed so as to provide a smooth even contact with a membrane filter 18 placed next to it in the apparatus. The membrane filter separates reactants passing through it by size, retaining those particles above a predetermined size, such as above 0.22 µm, or above 0.45 µm in size (depending upon the specific filter chosen), though other filters placed into the apparatus might separate by binding or affinity (i.e. nitrocellulose, glass). […]
The mixture was shaken gently a room temperature for 1 hour, and then washed 3 times by centrifugation at 9,000 x g for 10 minutes, removal of supernate, and resuspension of the pellet in a 12-14 ml volume of deionized water, pH 4.5. […] It was determined that this stock solution of latex coated with peptide-BSA conjugate could be diluted 1:10-1:30 with latex diluent buffer for use in the rapid EIA described below. […]

The nature of test [3]: EIA of 4S36 as free peptide or BSA conjugate on 3 polystyrene microtiter plates. The format is binding, human. Conditions: BSA-peptide conjugate, plastic type 1; Figure 9. The source says: Antigenicity of each unnatural peptide is indicated by its ability as a free peptide to inhibit binding of HIV-1 antibodies to a BSA conjugate of peptide 2S09. […] Antigenicity of each peptide is indicated by its ability as a free peptide to inhibit binding of HIV-1 antibodies to a BSA conjugate of either 2S09 or peptide 5S67, a natural sequence variant reported in HIV-1 isolates from Zaire (Gnann et al., Science 237:1346-1349, 1987; and Alizon et al., Cell 46:36, 1986). […] Antigenicity of each peptide is indicated by its ability as a free peptide to inhibit binding of SIV/HIV-2 antibodies to a BSA conjugate of peptide 2S27. […] AA variants of peptide 2S27 are highlighted. […] Different groups of peptides were initially conjugated to BSA as indicated and the conjugates of each pool were first tested. […] All peptides were utilized C-terminally conjugated to BSA. […]
The free peptides or peptide-protein conjugates of Figures 1-13 were initially screened for immunoreactivity by coating each well of polystyrene microtiter EIA plates (Costar, Cambridge, Massachusetts, U.S.A.) with 0.2 ml amounts of concentrations of 5-50 micrograms/ml peptide in Tris buffer, 10 mM, pH 8.0, at 4°C overnight. […] Reactions were stopped with 50 microliters of 4N H₂SO₄, and the color development was quantitated in a Multiscan plate reader at A₄₉₂. […]

Test [4] concerns antibodies to HIV-1. Put plainly: EIA of HIV-1 gp41 peptide-protein conjugates against serum pools. The format is binding, human. Conditions: peptide conjugated via C-terminus to BSA (SMCC), coated at 10 micrograms peptide/ml; 1:101 dilution of HIV+ serum pool; Figure 1. As for the experimental part:
as §1
The peptides in Figures 1 and 5 were synthesized as described in Example 1 and conjugated to KLH or BSA as described in Example 2. These peptide-protein conjugates were coated to polystyrene microtiter plates all at a concentration 10 micrograms peptide/ml and evaluated for immunoreactivity as described in Example 3, using a 1:101 dilution of a pool of sera (HIV+/SIV+, respectively) containing antibodies to HIV-1 (Figure 1) or to HIV-2 (Figure 5), as well as pooled serum (HIV-/SIV-, respectively) containing no antibodies to HIV-1 or HIV-2. […] Since sera from patients infected with HIV-2 are relatively unavailable in the United States, the immunoreactivity of HIV-2 synthetic peptides was assessed using serum from macaques infected with SIV, obtained from the University of Washington Primate Center, Seattle, Washington, U.S.A. The AA sequence of SIV is nearly identical to HIV-2 in the region of the peptides synthesized (see Myers et al., Human Retroviruses and AIDS, 1988. A compilation of nucleic acid and amino acid sequences. Los Alamos National Laboratory, Los Alamos, New Mexico, 87545, USA).

Test [5] deals with antibodies to HIV-1. The test can be described thus: Rapid test with peptide-BSA-colloidal gold conjugate. The format is binding, human. Here is the method: as §2
An 8 ml quantity of peptide IWGCSGKLICTTAVPGC (A280nm∼=0.50) conjugated via its C-terminus and SMCC to BSA was dialyzed overnight against 2L of DI water at 4°C. […] The A₅₈₀ of each well was determined and the lowest values, indicating best protection, were at pH6.1>pH6.0>> other pH's. Using larger amounts of gold sol at pH6.1 the minimal amount of protective protein was determined to be 70 microliters of the dialyzed peptide-BSA (A₂₈₀ = 0.45). […]

“Also recorded” adds a separate entry of the source. Where only a bound is given, the exact number is not on record here.

As to VWGCSGKLICTTAVPGC [4S36], the “reactivity with sera that did not contain antibodies to HIV-1” value with antibodies to HIV-1 [1] (85-87 negative sera, Figures 10C, 11) was “remained acceptably low”. Also, the “A492 values of positive samples (none less than)” value in the test with antibodies to HIV-1 [1] (98 positive samples, Figure 11) was at least 1.0. Moreover, the “immunoreactivity with positive sera” value in the test on antibodies to HIV-1 [1] (11) is reported as “striking increase in immunoreactivity of the low positives”. Also, in the test on antibodies to HIV-1 [2], the “performance of free peptide passively adsorbed to latex” value is listed as “produced an immunoreactive reagent”. Besides, the positive/negative ratios in test [3] is at least 20.
Regarding IWGCSGKLICTTAVPGC [2S09], in the test on antibodies to HIV-1 [4], the “immunoreactivity with HIV-1 antibodies” value is listed as “maximally immunoreactive; also recorded: higher reactivity; also recorded: Significant immunoreactivity; also recorded: slightly superior immunoreactivity”. Further, the “immunoreactivity with positive sera” value in the test with antibodies to HIV-1 [1] (11) is “very low immunoreactivity”. In addition, in the test with antibodies to HIV-1 [5] (20 sera containing antibodies to HIV-1, diluted 1:100), the “result with positive serum samples (red-purple dots)” value is reported as 19 of the 20. Moreover, the “result with negative sera” value with antibodies to HIV-1 [5] (20 sera without antibodies to HIV-1) is “only the white color of the underlying membrane remained”.

These data come from patent publication EP0449955B1, “SYNTHETIC HIV-LIKE PEPTIDES, THEIR COMPOSITIONS AND USES” (CLARITY TECHNOLOGIES INCORPORATED, priority 1988, dated 1996).
